According to patent US11254686B1 (Corvus Pharmaceuticals, Inc., priority 2017, dated 2022):

What was measured:
Type in all cases: biochemical
adenosine A2B receptor = adenosine A2B receptor (Homo sapiens (Human), UniProt P29275); assay: Adenosine receptor activity assay (Table 1), A2B activity; conditions: for IC50: read-out: Ave A2B cAMP IC50
adenosine A2A receptor = adenosine A2A receptor (Homo sapiens (Human), UniProt P29274); assay: Adenosine receptor activity assay (Table 1), A2A activity; conditions: read-out: Ave A2A cAMP IC50
adenosine A1 receptor = adenosine A1 receptor (Homo sapiens (Human), UniProt P30542); assay: Adenosine receptor activity assay (Table 1), A1 cAMP
Procedure: (§1) Table 1. Compounds (e.g., Adenosine Receptor modulators) and activity assay results. The legend is as follows: A=<10 nM; B=10-50 nM; C=50-100 nM; D=100-500; and E=>500 nM. The ratio corresponds to the A2A activity to the A2B activity; or A2A/A2B.

adenosine A3 receptor = adenosine A3 receptor (Homo sapiens (Human), UniProt P0DMS8); assay: Adenosine receptor activity assay (Table 1), A3 cAMP
Procedure: as §1

[1] = A2A activity to the A2B activity, A2A/A2B

adenosine A3 receptor, sequence (P0DMS8 whole entry): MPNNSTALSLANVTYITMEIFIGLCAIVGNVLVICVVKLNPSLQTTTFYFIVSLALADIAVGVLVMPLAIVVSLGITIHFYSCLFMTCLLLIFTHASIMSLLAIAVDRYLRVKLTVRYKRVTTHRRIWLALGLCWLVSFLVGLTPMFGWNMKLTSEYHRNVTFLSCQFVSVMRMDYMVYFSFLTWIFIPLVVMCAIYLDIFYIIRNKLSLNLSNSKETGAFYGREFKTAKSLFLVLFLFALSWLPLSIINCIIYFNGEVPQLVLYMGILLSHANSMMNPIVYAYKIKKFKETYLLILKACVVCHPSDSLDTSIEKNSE
adenosine A1 receptor, sequence (P30542 whole entry): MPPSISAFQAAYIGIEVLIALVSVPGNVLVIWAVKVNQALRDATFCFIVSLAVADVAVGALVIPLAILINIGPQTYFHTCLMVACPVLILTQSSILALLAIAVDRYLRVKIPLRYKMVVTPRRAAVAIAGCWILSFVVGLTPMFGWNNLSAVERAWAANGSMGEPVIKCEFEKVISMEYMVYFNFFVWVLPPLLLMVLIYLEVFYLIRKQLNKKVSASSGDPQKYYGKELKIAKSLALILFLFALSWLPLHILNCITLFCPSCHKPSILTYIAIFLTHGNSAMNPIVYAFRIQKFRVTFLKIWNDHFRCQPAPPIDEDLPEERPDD
adenosine A2B receptor, sequence (P29275 whole entry): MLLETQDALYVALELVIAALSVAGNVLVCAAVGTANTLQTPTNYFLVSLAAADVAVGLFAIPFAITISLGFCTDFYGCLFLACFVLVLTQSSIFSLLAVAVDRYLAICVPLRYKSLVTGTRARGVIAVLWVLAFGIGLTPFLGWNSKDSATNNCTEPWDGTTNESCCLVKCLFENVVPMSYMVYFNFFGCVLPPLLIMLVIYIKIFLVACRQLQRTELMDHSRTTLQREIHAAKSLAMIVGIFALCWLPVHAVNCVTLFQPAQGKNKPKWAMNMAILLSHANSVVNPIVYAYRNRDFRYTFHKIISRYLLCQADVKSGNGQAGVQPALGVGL
adenosine A2A receptor, sequence (P29274 whole entry): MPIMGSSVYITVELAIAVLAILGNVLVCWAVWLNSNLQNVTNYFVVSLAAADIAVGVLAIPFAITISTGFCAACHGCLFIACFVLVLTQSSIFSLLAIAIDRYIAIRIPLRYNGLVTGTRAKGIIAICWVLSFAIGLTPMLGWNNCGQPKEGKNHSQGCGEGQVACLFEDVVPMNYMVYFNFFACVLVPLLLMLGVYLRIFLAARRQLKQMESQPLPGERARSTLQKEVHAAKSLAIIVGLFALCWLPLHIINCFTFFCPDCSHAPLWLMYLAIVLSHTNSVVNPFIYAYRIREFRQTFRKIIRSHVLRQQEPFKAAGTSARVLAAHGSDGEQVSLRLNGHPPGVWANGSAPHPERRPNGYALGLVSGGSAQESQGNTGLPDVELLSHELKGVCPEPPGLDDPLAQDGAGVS

| Compound | Ratio (adenosine A2B receptor; [1]) | IC50 (adenosine A2B receptor) | IC50 (adenosine A2A receptor) | IC50 (adenosine A1 receptor) | IC50 (adenosine A3 receptor) | Ratio (adenosine A2B receptor; A2A activity to A2B activity (A2A/A2B)) |
| --- | --- | --- | --- | --- | --- | --- |
| C[C@H](Nc1nc(C(=O)N[C@@H]2CC[C@H](O)C2)c2sccc2n1)c1cncc(F)c1 [Example Z402, 2-(((S)-1-(5-Fluoropyridin-3-yl)ethyl)amino)-N-((1R,3S)-3-hydroxycyclopentyl)thieno[3,2-d]pyrimidine-4-carboxamide] | 38.37 | < 10 nM | 50 to 100 nM | 100 to 500 nM | 50 to 100 nM | – |
| COC[C@@H](Nc1nc(C(=O)NCCc2ccc(O)cc2)c2sccc2n1)c1cccnc1 [Example Z403, (S)—N-(4-Hydroxyphenethyl)-2-((2-methoxy-1-(pyridin-3-yl)ethyl)amino)thieno[3,2-d]pyrimidine-4-carboxamide] | 42.24 | 10 to 50 nM | > 500 nM | > 500 nM | > 500 nM | – |
| C[C@H](Nc1nc(C(=O)N2CC(CNC(=O)OC(C)(C)C)C2)c2sccc2n1)c1cncc(F)c1 [Example Z404, tert-Butyl (S)-((1-(2-((1-(5-fluoropyridin-3-yl)ethyl)amino)thieno[3,2-d]pyrimidine-4-carbonyl)azetidin-3-yl)methyl)carbamate] | 5.80 | < 10 nM | 10 to 50 nM | > 500 nM | > 500 nM | – |
| C[C@H](Nc1nc(C(=O)NCCc2ccc(O)cc2)c2sccc2n1)c1ccnc(F)c1 [Example Z405, (S)-2-((1-(2-Fluoropyridin-4-yl)ethyl)amino)-N-(4-hydroxyphenethyl)thieno[3,2-d]pyrimidine-4-carboxamide] | 28.50 | < 10 nM | 100 to 500 nM | > 500 nM | > 500 nM | – |
| C[C@H](Nc1nc(C(=O)NCCc2cccc(O)c2)c2sccc2n1)c1cncc(F)c1 [Example Z409, (S)-2-((1-(5-Fluoropyridin-3-yl)ethyl)amino)-N-(3-hydroxyphenethyl)thieno[3,2-d]pyrimidine-4-carboxamide] | 5.96 | < 10 nM | 10 to 50 nM | 50 to 100 nM | 50 to 100 nM | – |
| C[C@H](Nc1nc(C(=O)NCCc2ccc(O)cc2)c2sccc2n1)c1ccccn1 [Example Z410, (S)—N-(4-Hydroxyphenethyl)-2-((1-(pyridin-2-yl)ethyl)amino)thieno[3,2-d]pyrimidine-4-carboxamide] | 69.41 | < 10 nM | 100 to 500 nM | > 500 nM | > 500 nM | – |
| COc1cccc(CCNC(=O)c2nc(N[C@@H](C)c3cncc(F)c3)nc3ccsc23)n1 [Example Z411, (S)-2-((1-(5-Fluoropyridin-3-yl)ethyl)amino)-N-(2-(6-methoxypyridin-2-yl)ethyl)thieno[3,2-d]pyrimidine-4-carboxamide] | 19.23 | < 10 nM | 100 to 500 nM | > 500 nM | > 500 nM | – |
| Cc1cc2nc(N[C@@H](C)c3cncc(F)c3)nc(C(=O)N3CC[C@@H](N)C3)c2s1 [Example Z413, ((R)-3-Aminopyrrolidin-1-yl)(2-(((S)-1-(5-fluoropyridin-3-yl)ethyl)amino)-6-methylthieno[3,2-d]pyrimidin-4-yl)methanone] | 126.84 | 10 to 50 nM | > 500 nM | > 500 nM | > 500 nM | – |
| Cc1csc2c(C(=O)N3CCCC3)nc(N[C@@H](C)c3cncc(F)c3)nc12 [Example Z414, (S)-(2-((1-(5-Fluoropyridin-3-yl)ethyl)amino)-7-methylthieno[3,2-d]pyrimidin-4-yl)(pyrrolidin-1-yl)methanone] | 19.11 | < 10 nM | 10 to 50 nM | 50 to 100 nM | 50 to 100 nM | – |
| Cc1csc2c(C(=O)N3CC[C@H](O)C3)nc(N[C@@H](C)c3cncc(F)c3)nc12 [Example Z416, (2-(((S)-1-(5-Fluoropyridin-3-yl)ethyl)amino)-7-methylthieno[3,2-d]pyrimidin-4-yl)((S)-3-hydroxypyrrolidin-1-yl)methanone] | 52.64 | < 10 nM | 100 to 500 nM | > 500 nM | > 500 nM | – |
| CNC1CN(C(=O)c2nc(N[C@@H](C)c3cncc(F)c3)nc3cc(C)sc23)C1 [Example Z418, (S)-(2-((1-(5-Fluoropyridin-3-yl)ethyl)amino)-6-methylthieno[3,2-d]pyrimidin-4-yl)(3-(methylamino)azetidin-1-yl)methanone] | 207.31 | 10 to 50 nM | > 500 nM | > 500 nM | > 500 nM | – |
| COc1ccc(CCCNC(=O)c2nc(N[C@@H](C)c3cncc(F)c3)nc3ccsc23)cc1 [Example Z422, (S)-2-((1-(5-Fluoropyridin-3-yl)ethyl)amino)-N-(3-(4-methoxyphenyl)propyl)thieno[3,2-d]pyrimidine-4-carboxamide] | 7.52 | 10 to 50 nM | 100 to 500 nM | > 500 nM | > 500 nM | – |
| C[C@H](Nc1nc(C(=O)NCCc2cccc(O)c2)c2sccc2n1)c1cccnc1 [Example Z427, (S)—N-(3-Hydroxyphenethyl)-2-((1-(pyridin-3-yl)ethyl)amino)thieno[3,2-d]pyrimidine-4-carboxamide] | 5.03 | 50 to 100 nM | 100 to 500 nM | 100 to 500 nM | 100 to 500 nM | – |
| C[C@H](Nc1nc(C(=O)NCCc2cccc(O)c2)c2sccc2n1)c1ccccn1 [Example Z428, (S)—N-(3-Hydroxyphenethyl)-2-((1-(pyridin-2-yl)ethyl)amino)thieno[3,2-d]pyrimidine-4-carboxamide] | 10.94 | 10 to 50 nM | 100 to 500 nM | > 500 nM | > 500 nM | – |
| Cc1cc2nc(N[C@@H](C)c3cncc(F)c3)nc(C(=O)N3CC(NC(=O)OC(C)(C)C)C3)c2s1 [Example Z429, tert-Butyl (S)-(1-(2-((1-(5-Fluoropyridin-3-yl)ethyl)amino)-6-methylthieno[3,2-d]pyrimidine-4-carbonyl)azetidin-3-yl)carbamate] | 4.15 | < 10 nM | 10 to 50 nM | 50 to 100 nM | 10 to 50 nM | – |
| COc1ccc([C@H](C)Nc2nc(C(=O)NCc3cccnc3)c3sccc3n2)cc1 [Example Z435, (S)-2-((1-(4-Methoxyphenyl)ethyl)amino)-N-(pyridin-3-ylmethyl)thieno[3,2-d]pyrimidine-4-carboxamide] | 0.04 | 100 to 500 nM | 10 to 50 nM | 100 to 500 nM | 50 to 100 nM | – |
| Cc1csc2c(C(=O)NCc3ccccn3)nc(N[C@@H](C)c3ccccn3)nc12 [Example Z451, (S)-7-Methyl-2-((1-(pyridin-2-yl)ethyl)amino)-N-(pyridin-2-ylmethyl)thieno[3,2-d]pyrimidine-4-carboxamide] | 0.35 | 10 to 50 nM | 10 to 50 nM | 50 to 100 nM | 10 to 50 nM | – |
| Cc1csc2c(C(=O)NC3CCC3)nc(N[C@@H](C)c3ccccn3)nc12 [Example Z456, (S)—N-Cyclobutyl-7-methyl-2-((1-(pyridin-2-yl)ethyl)amino)thieno[3,2-d]pyrimidine-4-carboxamide] | 2.47 | < 10 nM | 10 to 50 nM | > 500 nM | 50 to 100 nM | – |
| Cc1csc2c(C(=O)NCc3cccnc3)nc(N[C@@H](C)c3ccccn3)nc12 [Example Z458, (S)-7-Methyl-2-((1-(pyridin-2-yl)ethyl)amino)-N-(pyridin-3-ylmethyl)thieno[3,2-d]pyrimidine-4-carboxamide] | 0.72 | 10 to 50 nM | 10 to 50 nM | > 500 nM | > 500 nM | – |
| Cc1csc2c(C(=O)N3CCCC3)nc(N[C@@H](C)c3ccccn3)nc12 [Example Z459, (S)-(7-methyl-2-((1-(pyridin-2-yl)ethyl)amino)thieno[3,2-d]pyrimidin-4-yl)(pyrrolidin-1-yl)methanone] | 2.40 | 10 to 50 nM | 10 to 50 nM | > 500 nM | > 500 nM | – |
| Cc1cc2nc(N[C@@H](C)c3ccccn3)nc(C(=O)NCc3ccccn3)c2s1 [Example Z461, (S)-6-Methyl-2-((1-(pyridin-2-yl)ethyl)amino)-N-(pyridin-2-ylmethyl)thieno[3,2-d]pyrimidine-4-carboxamide] | 3.15 | 10 to 50 nM | 10 to 50 nM | > 500 nM | 50 to 100 nM | – |
| Cc1cc2nc(N[C@@H](C)c3ccccn3)nc(C(=O)NCc3cccnc3)c2s1 [Example Z462, (S)-6-Methyl-2-((1-(pyridin-2-yl)ethyl)amino)-N-(pyridin-3-ylmethyl)thieno[3,2-d]pyrimidine-4-carboxamide] | 2.70 | 10 to 50 nM | 50 to 100 nM | > 500 nM | 50 to 100 nM | – |
| CC(=O)Nc1ccc(CCNC(=O)c2nc(N[C@@H](C)c3cccnc3)nc3cc(C)sc23)cc1 [Example Z497, (S)—N-(4-Acetamidophenethyl)-6-methyl-2-((1-(pyridin-3-yl)ethyl)amino)thieno[3,2-d]pyrimidine-4-carboxamide] | – | 10 to 50 nM | – | – | 50 to 100 nM | – |
| (6-Amino-2-(((S)-1-(pyridin-2-yl)ethyl)amino)thieno[3,2-d]pyrimidin-4-yl)((R)-3-fluoropyrrolidin-1-yl)methanone [Example Z174] | – | 10 to 50 nM | 100 to 500 nM | – | – | 15.05 |
| Azetidin-1-yl(2-(((6-methoxypyridin-3-yl)methyl)amino)thieno[3,2-d]pyrimidin-4-yl)methanone [Example Z433] | 0.22 | > 500 nM | 100 to 500 nM | – | – | – |
